Experimental data reported in US9739784B2, “Giant obscurins and uses thereof in cancer prognosis and therapy” (UNIVERSITY OF MARYLAND, BA, priority 2013, dated 2017).

Tested on: obscurin-KD MCF10A cells
Experiment: Sensitivity of obscurin-KD MCF10A cells to chemotherapeutic drugs (cell viability)
Format: cell-based, human
Conditions: compared to control cells
From the text: Moreover, loss of giant obscurins results in major cytoskeletal alterations leading to increased cell growth, motility and invasion. […] Thus, breast cancer cells may have different responses to cytoskeletal-targeting chemotherapies depending on the relative expression of giant obscurins.

Row | Compound | sensitivity of obscurin-depleted MCF10A cells to the drug
1 | COc1cc([C@@H]2c3cc4c(cc3[C@@H](O[C@@H]3O[C@@H]5CO[C@@H](C)O[C@H]5[C@H](O)[C@H]3O)[C@H]3COC(=O)[C@H]23)OCO4)cc(OC)c1O [etoposide] | reduced sensitivity
2 | CC(=O)O[C@H]1C(=O)[C@@]2(C)[C@H]([C@H](OC(=O)c3ccccc3)[C@]3(O)C[C@H](OC(=O)[C@H](O)[C@@H](NC(=O)c4ccccc4)c4ccccc4)C(C)=C1C3(C)C)[C@]1(OC(C)=O)CO[C@@H]1C[C@@H]2O [paclitaxel] | reduced sensitivity
